Source: US20210009542A1 (Calico Life Sciences LLC, priority 2018, published 2021)
Read-outs that look alike come from different tables or passages of the source.

What was measured:
[1] = target: T1, His tagged PTPN2 (TC45) protein (Homo sapiens, UniProt P17706); assay: Mobility shift assay (MSA) for potency of PTPN2 inhibitors; format: biochemical; conditions: read-out: PTPN2 MSA IC50
T1 construct: made in house
T1 sequence (P17706 with tags, fused parts or gaps isoform P17706-2): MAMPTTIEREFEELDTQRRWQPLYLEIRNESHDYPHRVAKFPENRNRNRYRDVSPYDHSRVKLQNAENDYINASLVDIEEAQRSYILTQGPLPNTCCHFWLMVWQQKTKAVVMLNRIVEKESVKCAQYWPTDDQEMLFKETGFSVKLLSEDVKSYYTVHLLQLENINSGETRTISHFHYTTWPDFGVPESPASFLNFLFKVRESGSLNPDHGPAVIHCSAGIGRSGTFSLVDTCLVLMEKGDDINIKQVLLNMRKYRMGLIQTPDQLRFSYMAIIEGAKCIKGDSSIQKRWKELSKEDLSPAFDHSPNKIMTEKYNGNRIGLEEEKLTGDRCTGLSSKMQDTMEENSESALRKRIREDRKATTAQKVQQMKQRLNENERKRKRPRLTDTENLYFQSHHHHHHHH
In short: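 His-tagged PTPN2 TC45 (0.5 nM) was preincubated with compound (12-point, 1:3) for 10 min at room temperature in 50 mM HEPES pH 7.5, 1 mM EGTA, 10 mM EDTA, 0.01% Tween 20, 2 mM DTT. OG488-labelled phospho-insulin-receptor peptide ([…]) was then added for 10 min. After quenching, dephosphorylation was measured by microfluidic mobility shift and IC50 derived from % inhibition.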

[2] = system: B16F10 mouse melanoma cells; assay: B16F10 IFNγ-induced cellular growth inhibition assay; format: cell-based; conditions: Mus musculus, B16-F10, 33 μM compound
In short: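 B16F10 cells (500/well, DMEM + 10% FBS) dosed in triplicate at 100 μM to 0.001 μM (0.1% DMSO) with or without 0.5 ng/mL final mouse IFNγ. Confluence imaged every 6 h for 5 days; % growth inhibition calculated versus DMSO/with-IFNγ control once DMSO/no-IFNγ wells exceeded 95% confluence.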

[3] = +0.5 ng/mL IFNγ, relative to DMSO control, read-out: % B16F10 growth inhibition (+0.5 ng/mL IFNγ) @ 33 μM
[4] = no IFNγ, read-out: % B16F10 growth inhibition (no IFNγ) @ 33 μM

Structure (SMILES)	IC50 [1] [nM]	inhibition at 33 µM [2, 3] [%]	inhibition at 33 µM [2, 4] [%]
O=C1CN(c2c(O)cc3ccc(OCCOC4CCC4)cc3c2F)S(=O)(=O)N1 [Compound 214, 5-{7-[2-(cyclobutyloxy)ethoxy]-1-fluoro-3-hydroxynaphthalen-2-yl}-1λ^6,2,5-thiadiazolidine-1,1,3-trione]	1 to 10	60 to 90	< 25
CC(C)OCCOc1ccc2cc(O)c(N3CC(=O)NS3(=O)=O)c(F)c2c1 [Compound 215, 5-(1-fluoro-3-hydroxy-7-{2-[(propan-2-yl)oxy]ethoxy}naphthalen-2-yl)-1λ^6,2,5-thiadiazolidine-1,1,3-trione]	1 to 10	60 to 90	< 25
CCOCCCOc1ccc2cc(O)c(N3CC(=O)NS3(=O)=O)c(F)c2c1 [Compound 216, 5-[7-(3-ethoxypropoxy)-1-fluoro-3-hydroxynaphthalen-2-yl]-1λ^6,2,5-thiadiazolidine-1,1,3-trione]	1 to 10	25 to 59	< 25
CC(C)(C)OCCOc1ccc2cc(O)c(N3CC(=O)NS3(=O)=O)c(F)c2c1 [Compound 217, 5-[7-(2-tert-butoxyethoxy)-1-fluoro-3-hydroxynaphthalen-2-yl]-1λ^6,2,5-thiadiazolidine-1,1,3-trione]	1 to 10	25 to 59	< 25
O=C1CN(c2c(O)cc3ccc(OC4CC4)cc3c2F)S(=O)(=O)N1 [Compound 223, 5-[7-(cyclopropyloxy)-1-fluoro-3-hydroxynaphthalen-2-yl]-1λ^6,2,5-thiadiazolidine-1,1,3-trione]	1 to 10	60 to 90	< 25
O=C1CN(c2c(O)cc3ccc(NCCC4CC4)cc3c2F)S(=O)(=O)N1 [Compound 224, 5-{7-[(2-cyclopropylethyl)amino]-1-fluoro-3-hydroxynaphthalen-2-yl}-1λ^6,2,5-thiadiazolidine-1,1,3-trione]	1 to 10	> 90	< 25
O=C1CN(c2c(O)cc3ccc(C4CNC4)cc3c2F)S(=O)(=O)N1 [Compound 226, 5-[7-(azetidin-3-yl)-1-fluoro-3-hydroxynaphthalen-2-yl]-1λ^6,2,5-thiadiazolidine-1,1,3-trione]	1 to 10	60 to 90	< 25
COc1ccc(-c2ccc3cc(O)c(N4CC(=O)NS4(=O)=O)c(F)c3c2)s1 [Compound 227, 5-[1-fluoro-3-hydroxy-7-(5-methoxythiophen-2-yl)naphthalen-2-yl]-1λ^6,2,5-thiadiazolidine-1,1,3-trione]	1 to 10	60 to 90	< 25
O=C1CN(c2c(O)cc3ccc(OCC4CC(F)(F)C4)cc3c2F)S(=O)(=O)N1 [Compound 235, 5-{7-[(3,3-difluorocyclobutyl)methoxy]-1-fluoro-3-hydroxynaphthalen-2-yl}-1λ^6,2,5-thiadiazolidine-1,1,3-trione]	1 to 10	60 to 90	< 25
O=C1CN(c2c(O)cc3ccc(C4=CCN(C(=O)C5CC5)C4)cc3c2F)S(=O)(=O)N1 [Compound 237, 5-{7-[1-(cyclopropanecarbonyl)-2,5-dihydro-1H-pyrrol-3-yl]-1-fluoro-3-hydroxynaphthalen-2-yl}-1λ^6,2,5-thiadiazolidine-1,1,3-trione]	1 to 10	> 90	< 25
COc1ccc2c(Cl)c(O)c(N3CC(=O)NS3(=O)=O)c(F)c2c1 [Compound 238, 5-(4-chloro-1-fluoro-3-hydroxy-7-methoxynaphthalen-2-yl)-1λ^6,2,5-thiadiazolidine-1,1,3-trione]	10 to 100	< 25	< 25
O=C1CN(c2c(O)cc3ccc(/C=C/C4CC4)cc3c2F)S(=O)(=O)N1 [Compound 239, 5-{7-[(E)-2-cyclopropylethenyl]-1-fluoro-3-hydroxynaphthalen-2-yl}-1λ^6,2,5-thiadiazolidine-1,1,3-trione]	1 to 10	60 to 90	< 25
CC(C)C/C=C/c1ccc2cc(O)c(N3CC(=O)NS3(=O)=O)c(F)c2c1 [Compound 240, 5-{1-fluoro-3-hydroxy-7-[(1E)-4-methylpent-1-en-1-yl]naphthalen-2-yl}-1λ^6,2,5-thiadiazolidine-1,1,3-trione]	1 to 10	25 to 59	< 25
O=C1CN(c2c(O)cc3ccc(C4=CCN(CC5CC5)C4)cc3c2F)S(=O)(=O)N1 [Compound 242, 5-{7-[1-(cyclopropylmethyl)-2,5-dihydro-1H-pyrrol-3-yl]-1-fluoro-3-hydroxynaphthalen-2-yl}-1λ^6,2,5-thiadiazolidine-1,1,3-trione]	1 to 10	60 to 90	< 25
COc1ccc2c(Br)c(O)c(N3CC(=O)NS3(=O)=O)c(F)c2c1 [Compound 243, 5-(4-bromo-1-fluoro-3-hydroxy-7-methoxynaphthalen-2-yl)-1λ^6,2,5-thiadiazolidine-1,1,3-trione]	10 to 100	25 to 59	< 25
COC/C=C/c1ccc2cc(O)c(N3CC(=O)NS3(=O)=O)c(F)c2c1 [Compound 245, 5-{1-fluoro-3-hydroxy-7-[(1E)-3-methoxyprop-1-en-1-yl]naphthalen-2-yl}-1λ^6,2,5-thiadiazolidine-1,1,3-trione]	1 to 10	60 to 90	< 25
CCOCCOc1ccc2cc(O)c(N3CC(=O)NS3(=O)=O)c(F)c2c1 [Compound 246, 5-[7-(2-ethoxyethoxy)-1-fluoro-3-hydroxynaphthalen-2-yl]-1λ^6,2,5-thiadiazolidine-1,1,3-trione]	1 to 10	60 to 90	< 25
COCCCOc1ccc2cc(O)c(N3CC(=O)NS3(=O)=O)c(F)c2c1 [Compound 247, 5-[1-fluoro-3-hydroxy-7-(3-methoxypropoxy)naphthalen-2-yl]-1λ^6,2,5-thiadiazolidine-1,1,3-trione]	1 to 10	60 to 90	< 25
O=C1CN(c2c(O)cc3ccc(C4CCS(=O)(=O)CC4)cc3c2F)S(=O)(=O)N1 [Compound 248, 5-[7-(1,1-dioxo-1λ^6-thian-4-yl)-1-fluoro-3-hydroxynaphthalen-2-yl]-1λ^6,2,5-thiadiazolidine-1,1,3-trione]	1 to 10	60 to 90	< 25
O=C1CN(c2c(O)cc3ccc(OCC4CC4)cc3c2F)S(=O)(=O)N1 [Compound 250, 5-[7-(cyclopropylmethoxy)-1-fluoro-3-hydroxynaphthalen-2-yl]-1λ^6,2,5-thiadiazolidine-1,1,3-trione]	1 to 10	60 to 90	< 25
O=C1CN(c2c(O)cc3ccc(CC4CCN(CC(F)(F)F)CC4)cc3c2F)S(=O)(=O)N1 [Compound 252, 5-(1-fluoro-3-hydroxy-7-{[1-(2,2,2-trifluoroethyl)piperidin-4-yl]methyl}naphthalen-2-yl)-1λ^6,2,5-thiadiazolidine-1,1,3-trione]	1 to 10	25 to 59	< 25
O=C1CN(c2c(O)cc3ccc(CC4CN(S(=O)(=O)C5CC5)C4)cc3c2F)S(=O)(=O)N1 [Compound 256, 5-(7-{[1-(cyclopropanesulfonyl)azetidin-3-yl]methyl}-1-fluoro-3-hydroxynaphthalen-2-yl)-1λ^6,2,5-thiadiazolidine-1,1,3-trione]	< 1	25 to 59	< 25
O=C1CN(c2c(O)cc3ccc(C4=CCOCC4)cc3c2F)S(=O)(=O)N1 [Compound 264, 5-[7-(3,6-dihydro-2H-pyran-4-yl)-1-fluoro-3-hydroxynaphthalen-2-yl]-1λ^6,2,5-thiadiazolidine-1,1,3-trione]	1 to 10	60 to 90	< 25
O=C1CN(c2c(O)cc3ccc(OCC4CCOCC4)cc3c2F)S(=O)(=O)N1 [Compound 273, 5-{1-fluoro-3-hydroxy-7-[(oxan-4-yl)methoxy]naphthalen-2-yl}-1λ^6,2,5-thiadiazolidine-1,1,3-trione]	1 to 10	60 to 90	< 25
O=C1CN(c2c(O)cc3ccc(OC4COC4)cc3c2F)S(=O)(=O)N1 [Compound 274, 5-{1-fluoro-3-hydroxy-7-[(oxetan-3-yl)oxy]naphthalen-2-yl}-1λ^6,2,5-thiadiazolidine-1,1,3-trione]	1 to 10	60 to 90	< 25
